Values of other authors as cited in patent publication US10028963B2, “Methods for treating intrapulmonary infections” (priority 2011, dated 2018).

Details: patients treated for nosocomial pneumonia

For `CN(C)c1cc(NC(=O)CNC(C)(C)C)c(O)c2c1C[C@H]1C[C@H]3[C@H](N(C)C)C(=O)C(C(N)=O)=C(O)[C@@]3(O)C(=O)C1=C2O` [tigicycline], the “Mortality risk compared to other drugs” value is given as “increased mortality risk”.
